Read-outs that look alike come from different tables or passages of the source.
Tests used:
[1] = Unbound fraction in plasma (rapid equilibrium dialysis), dog; type: in vitro ADME; details: dogs plasma, 0.3, 1, 3 μM, RED 5 h, read-out: fu,p
Procedure: The unbound fractions of IDP-73152 in various matrices were measured according to the manufacturer’s instructions for the rapid equilibrium dialysis (RED) device (ThermoFisher Scientific, Waltham, MA, USA). Briefly, IDP-73152 was added to the plasma or the microsomal/hepatocyte incubation buffer from various species (i.e., mouse, rat, dog, and human for microsomal incubation; rat for hepatocyte incubation) to obtain final concentrations of the compound at 0.3, 1, and 3 μM. After the membrane insert was placed in the RED plate, the solution containing IDP-73152 was added (400 µL) to the sample chamber, and the dialysis buffer (600 μL) was added to the buffer chamber. The RED plate was sealed with parafilm and then incubated at 37 °C in the orbital shaker (Lab Companion, Daejeon, Korea) at 100 rpm for 5 h. After a 50 μL aliquot was aspirated from both the sample and buffer chambers, an equal volume of protein-free buffer or blank medium was replaced in the aspirated sample or buffer to render the matrices compositionally identical. The IDP-73152 concentration in the buffer/sample chambers (i.e., CBuffer Chamber and CSample Chamber) was determined by an assay. Thus, the fraction unbound was defined as:(2) % Fraction unbound=(CBuffer Chamber/CSample Chamber)×100%

[2] = Blood partitioning (LC-MS/MS-based depletion method), rat; type: in vitro ADME; details: whole blood, rats blood, 0.3, 1, 3 μM, read-out: BP (blood-to-plasma concentration ratio)
Procedure: In this study, the partitioning of IDP-73152 in blood samples obtained from mice, rats, dogs, and humans was determined using the LC-MS/MS-based depletion method with slight modifications. DP-73152 was added to an aliquot (1 mL) of blank blood or plasma at a final concentration of 0.3, 1, or 3 μM. The mixture was incubated at 37 °C in a water bath for 60 min. After the incubation, the plasma was separated by centrifugation of the blood samples for 5 min at 10,000× g/4 °C and stored at -80 °C until analysis. The blood-to-plasma concentration ratio (BP) was calculated using the equation:(3) BP=[…], where […] is the concentration of the compound at the corresponding blood concentration in the plasma, and CPL is the concentration from the plasma sample separated from the incubated blood.

[3] = Tissue distribution at steady state, constant-rate infusion in rats; type: in vivo; details: for Kp at 10 h: 10 h infusion, read-out: KP,ss
Procedure: In this study, the extent of tissue distribution of IDP-73152 was also determined in rats. Rats received IDP-73152 at a constant rate of infusion (i.e., the rate of 0.8 mg/h (in 0.6 mL/h)) using a syringe pump (PHD ULTRA, Harvard apparatus, Holliston, MA, USA). The steady state was assumed to have been achieved when IDP-73152 was infused for 10 h (see below). Upon completion of the infusion, the animal was sacrificed, and major tissues (i.e., adipose tissue, brain, heart, kidney, liver, lung, muscle, skin, spleen, and testis) were collected. Assuming the density of tissues to be 1 g/mL, tissue samples were homogenized in twice their volume of phosphate buffered saline using a homogenizer (Ultra Turrax homogenizer, IKA-Werke GmbH & Co. KG, Staufen, Germany). Plasma samples and tissue homogenates were stored at −80 °C until analysis. The tissue-to-plasma concentration ratio at steady state (KP,ss) was then calculated for each tissue using the following equation [23, 24, 25]:(8) KP,ss=Ctissue,ss/Cplasma,ss, where Ctissue,ss and Cplasma,ss represent the concentration of the compound in the tissue and plasma at steady-state.
For the estimation of the volume of the distribution of IDP-73512 in rats, the steady-state volume of distribution (Vss) was calculated using the following equation [30]:(10) Vss=VP+Vrbc×EP+∑VT,i×KP,ss,i, where Vp, Vrbc, and VT,i are the volumes of plasma, red blood cells, and tissues, respectively. The erythrocyte-to-plasma partition coefficient (EP), is calculated by EP=1+(BP−1)/Hematocrit . The KP,ss for each tissue obtained from Equation (8) was applied for Equation (10). For the case of non-eliminating organs, the KP,ss was regarded as the tissue-to-plasma partition coefficient (KP) in PBPK equations (Appendix A). For the case of the liver—i.e., the eliminating organ—the KP,ss (KP,ss,LI) had to be corrected to account for the equilibrium being altered by the elimination. Thus, a PBPK-operative KP for liver (KP,LI) was calculated using the following equation [31]:(11) KP,LI=KP,ss,LI/(1−ER), where ER is the hepatic extraction ratio of the compound (i.e., CLh/(QLI·BP)). In this study, a compartmental absorption and transit (CAT) model consisting of stomach and five intestinal segments was considered for the description of the intestinal absorption kinetics of IDP-73152 in animals and humans. We assumed that the initial compartment denoted the stomach (Equation (12)), and the subsequent three compartments represented the small intestine and two additional compartments for the large intestine (i.e., a total of six compartments, with absorption occurring in the five intestinal compartments) (Equation (13)). The differential equations describing the rate of drug absorption and transit in the gastrointestinal tract can be written as: […]

CC(C)(C)[C@H](NC(=O)[C@H](CC1CCCC1)CN(O)C=O)C(=O)N1CCC(NCc2cc(F)c(F)cc2F)CC1 [IDP-73152] showed a fraction unbound at 5 h [1] of 0.0547 ± 0.0053, a blood plasma ratio at 60 min [2] of 1.56 ± 0.37 and a Kp at 10 h ([3]; Sprague Dawley, rat, intravenous, 0.8 mg/h, adipose tissue) of 0.853 ± 0.196. For the same compound, the Kp at 10 h ([3]; Sprague Dawley, rat, intravenous, 0.8 mg/h, brain) was 0.0729 ± 0.0167, the Kp at 10 h ([3]; Sprague Dawley, rat, intravenous, 0.8 mg/h, heart) was 2.15 ± 0.22 and the Kp at 10 h ([3]; Sprague Dawley, rat, intravenous, 0.8 mg/h, kidney) was 8.68 ± 1.83. It also gave a Kp at 10 h ([3]; Sprague Dawley, rat, intravenous, 0.8 mg/h, liver) of 12.2 ± 3.3, a Kp at 10 h ([3]; Sprague Dawley, rat, intravenous, 0.8 mg/h, lung) of 7.13 ± 1.28 and a Kp at 10 h ([3]; Sprague Dawley, rat, intravenous, 0.8 mg/h, muscle) of 1.37 ± 0.3. It also gave a Kp at 10 h ([3]; Sprague Dawley, rat, intravenous, 0.8 mg/h, skin) of 1.08 ± 0.38, a Kp at 10 h ([3]; Sprague Dawley, rat, intravenous, 0.8 mg/h, spleen) of 4.82 ± 1.3 and a Kp at 10 h ([3]; Sprague Dawley, rat, intravenous, 0.8 mg/h, testis) of 0.338 ± 0.089. For the same compound, the “plasma concentration during infusion” value ([3]; intravenous infusion 0.8 mg/h, 10 h) was 2120 ± 340 ng/mL, the Vd ([3]; male, Sprague Dawley, rat, plasma and tissue homogenates, intravenous, 0.8 mg/h, from KP,ss of ten tissues, read-out: Vss calculated by Equation (10)) was 2.09 L/kg and the concentration at 10 h ([3]; male, Sprague Dawley, rat, plasma, intravenous infusion 0.8 mg/h for 10 h, from CLp, read-out: expected steady-state concentration) was 2120 ± 340 ng/mL. For the same compound, the concentration at 8 h ([3]; male, Sprague Dawley, rat, plasma, intravenous infusion 0.8 mg/h, 8 h, read-out: plasma concentration during infusion) was 2070 ± 360 ng/mL and the concentration at 9 h ([3]; male, Sprague Dawley, rat, plasma, intravenous infusion 0.8 mg/h, 9 h, read-out: plasma concentration during infusion) was 1910 ± 270 ng/mL.
